Experimental data from publication PMC3938723, “Learning from Host-Defense Peptides: Cationic, Amphipathic Peptoids with Potent Anticancer Activity” (PLoS ONE, 2014).
Non-standard residues stand in square brackets, D forms with d. Residues, ends and D or L forms follow the SMILES beside them. Nspe = C[C@H](NCC(=O)O)c1ccccc1; Nphe = O=C(O)CNCc1ccccc1; Nlys = NCCCCNCC(=O)O

How the values were obtained:
MCF-7 (breast cancer) = experiment: MTS cell viability assay, MCF-7; assay type: cell-based; conditions: 72 h
Protocol: (§1) MCF-7, MCF-7/TxT50 and OVCAR-3 (available in ATCC) were kindly provided by Professor Branimir Sikic's lab at Stanford University, and were cultured in McCoy's 5A media (GIBCO) with 10% FBS and antibiotics. Primary dermal fibroblasts were gifts from Lifeline Cell Technology and were cultured <6 passages according to the protocol Lifeline provides. All the cells were cultured in cell incubators (Thermo Scientific) at 37°C with 5% CO2.
(§2) This assay is a colorimetric method for determining the number of viable cells in proliferation. Aliquots of 100 µl media containing 1×10^4 cells were distributed into each well of a 96-well plate (BD Falcon). The following day, when cell density reaches about ∼40% confluency, the cell media were removed and replaced with serial dilutions of peptoid stocks in culturing media. For peptoid dilutions, peptoid stocks were initially diluted in media at 100 µM and then diluted by half in series using a multichannel pipette, and maintained in 100 µl media for each concentration with triple repeats. After peptoid solutions were transferred onto cells in 96-well plates, cells were incubated at 37°C for certain time periods. Then 20 µl of the CellTiter 96 Aqueous Non-Radioactive cell proliferation assay (Promega) reagent which contains a tetrazolium compound, [3-(4,5-dimethylthiazol-2-yl)-5-(3-carboxymethoxyphenyl)-2-(4-sulfophenyl)-2H-tetrazolium, inner salt; MTS(a)], was added to each well and cells were further incubated for 2 h to metabolize. The absorbance of formazan products were measured at 490 nm in a microplate reader (Molecular Devices). Percentage of cell viability = (A -A testblank)/(A control -A blank)×100, where A is the absorbance of the test well and A control the average absorbance of wells with cells not treated with peptoids. A testblank (media, MTS, and diluted peptoids) and A blank (media and MTS) were background absorbances measured in the absence of cells.
(§3) The activity and selectivity of these peptoids against cancer cells were evaluated in vitro. Their cytotoxicity was tested in three cancer cell lines, MCF-7 (human breast cancer), LNCaP (human prostate cancer), and OVCAR-3 (human ovarian cancer). To estimate the selectivity of these peptoids in vitro, hemolytic activities of some peptoids were cited from previously published work (Table 2 **column), and the MRC-5 cell line (human fibroblasts derived from fetal lung tissues) and primary dermal fibroblasts were also tested as normal cell controls. Briefly, cells were treated with peptoids diluted in culturing media for certain time periods, and then cell viability was measured via MTS assays.

[1] = Analytical RP-HPLC elution as relative measure of molecular hydrophobicity; assay type: physicochemical; conditions: percentage of acetonitrile at elution, analytic RP-HPLC, C18 column, linear water/acetonitrile (0.1% trifluoroacetic acid) gradient 5%-95% acetonitrile over 30 min
Excerpt: Peptoids were synthesized using an ABI 433A peptide synthesizer (Applied Biosystems, Inc.) on Rink amide MBHA resin (EMD Biosciences, Gibbstown, NJ) using the submonomer protocol, [24]. Briefly, the amine on the nascent chain is bromoacetylated or chloroacetylated followed by SN2 displacement of bromide or chloride by a primary amine to form the side chain. Resin-bound peptoids were then exposed to a mixture of trifluoroacetic acid (TFA): triisopropylsilane: water (95∶2.5∶2.5, volume ratio) for 10 minutes to cleave peptoids from the resin. Crude peptoids were purified by reversed-phase high performance liquid chromatography (RP-HPLC) (Waters Corporation) using a C18 column and a linear acetonitrile/water gradient. A final purity >95% as measured by analytical RP-HPLC (Waters Corporation) was achieved, and the identity of each peptoid was confirmed using electrospray ionization mass spectrometry (ESI/MS). Pexiganan was synthesized by standard Fmoc chemistry on an ABI 433A peptide synthesizer ([…]). Unless indicated otherwise, all reagents were purchased from Sigma Aldrich (St. Louis, MO). Among the submonomers used, Nspe was derived from (S)-N-(1-phenylethyl)amine; Npm from benzylamine ([…]); NHis from histamine (2-[4-imidazolyl]ethylamine); NLeu from isobutylamine; NLys from N-tert-butoxycarbonyl-1,4-butanediamine (CNH Technologies, MA). Guanidinylation of NLys was carried out according to the reported procedure. When NHis was used in the peptoid sequence, chloroacetic acid was used. 5(6)-Carboxyfluorescein was used to label the N-terminus of peptoid 1 [28].
Peptoids were utilized herein as a peptidomimetic scaffold to capture the cationic, amphipathic nature of anticancer peptides, as well as to improve molecular stability and to increase chemical diversity. The design of anticancer peptoids were derived from previous antimicrobial peptoids and were further optimized hererin to improve the activity and selectivity of peptoids against anionic membranes, [24], [25]. […] Several novel variants were designed based on peptoid 1 but with different charges, amphipathicity, length, and helicity to change their activity or selectivity. The sequences of these variants, the solvent composition at RP-HPLC elution as a relative measure of molecular hydrophobicity, molecular net charges and their charge-to-length ratio are summarized in Table 1. […] Pexiganan, a clinically-relevant peptide analog of magainin 2 which was developed for topical treatment for diabetic foot infection, and LL-37, the only known human cathelicidin which is a non-selective antimicrobial peptide, were also tested for comparison.

LNCaP (prostate cancer) = experiment: MTS cell viability assay, LNCaP; assay type: cell-based; conditions: 72 h
Protocol: as §2, §3

[2] = tested on: MRC-5 (fetal lung fibroblast); experiment: MTS cell viability assay, MRC-5; assay type: cell-based; conditions: 72 h
Protocol: as §1, §2, §3

OVCAR3 (ovarian cancer) = experiment: MTS cell viability assay, OVCAR3; assay type: cell-based; conditions: 72 h
Protocol: as §1, §2, §3

[3] = tested on: Primary dermal fibroblast; experiment: MTS cell viability assay, primary dermal fibroblasts; assay type: cell-based; conditions: for LC50 Primary dermal fibroblast: 72 h
Protocol: as §1, §2, §3

human red blood cells = conditions: cited from earlier work
Excerpt: Table 2 Peptoid Cytotoxicity in cancer cell lines and control cells. | column: HC10 (µM) ** || The chain length is believed to influence not only the activity but also modes of action of cationic, amphipathic peptides, [34]. […] Thus we limited the chain length of peptoids to 13 residues at most, and studied 1 9mer which has the same charge-to-length ratio (CTLR) as peptoid ...

MCF-7/TxT50 cells = experiment: MTS cell viability in multidrug-resistant MCF-7/TxT50 versus MCF-7; assay type: cell-based, human; conditions: MTS assay, 72 h treatment
Protocol: as §1
This assay is a colorimetric method for determining the number of viable cells in proliferation. Aliquots of 100 µl media containing 1×10^4 cells were distributed into each well of a 96-well plate (BD Falcon). The following day, when cell density reaches about ∼40% confluency, the cell media were removed and replaced with serial dilutions of peptoid stocks in culturing media. […] The absorbance of formazan products were measured at 490 nm in a microplate reader (Molecular Devices). Percentage of cell viability = (A -A testblank)/(A control -A blank)×100, where A is the absorbance of the test well and A control the average absorbance of wells with cells not treated with peptoids. A testblank (media, MTS, and diluted peptoids) and A blank (media and MTS) were background absorbances measured in the absence of cells. […]
Figure 3 Activity of docetaxel and peptoids in MCF-7 and MCF-7/TxT50 cells. […] Cell viability was measured with MTS assays.

Row | Structure (SMILES) | LC50 MCF-7 (breast cancer) (MCF-7 (breast cancer)) [µM] | HPLC elution [1] [% ACN] | LC50 LNCaP (prostate cancer) (LNCaP (prostate cancer)) [µM] | LC50 MRC-5 (fetal lung fibroblast) [2] [µM] | LC50 OVCAR3 (ovarian cancer) (OVCAR3 (ovarian cancer)) [µM] | LC50 Primary dermal fibroblast [3] [µM] | HC10 (human red blood cells) [µM] | selectivity ratio ([3]; LC50 in primary dermal fibroblast divided by LC50 in cancer cells) | activity in MCF-7/TxT50 (MDR1 overexpressing) compared to wild-type MCF-7 (MCF-7/TxT50 cells)
1 | C[C@@H](c1ccccc1)N(CC(N)=O)C(=O)CN(C(=O)CN(CCCCN)C(=O)CN(C(=O)CN(C(=O)CN(CCCCN)C(=O)CN(C(=O)CN(C(=O)CNCCCCN)[C@@H](C)c1ccccc1)[C@@H](C)c1ccccc1)[C@@H](C)c1ccccc1)[C@@H](C)c1ccccc1)[C@@H](C)c1ccccc1 [1 9mer, H-(NLys-Nspe-Nspe)3-NH2] (H-[Nlys][Nspe][Nspe][Nlys][Nspe][Nspe][Nlys][Nspe][Nspe]-NH2) | 30 | 60 | 27 | 40 | 34 | 32 | 150 |  | 
2 | C[C@@H](c1ccccc1)N(CC(=O)N(CC(=O)N(CCCCN)CC(=O)N(CC(=O)N(CC(=O)N(CCCCN)CC(=O)N(CC(=O)N(CC(=O)N(CCCCN)CC(=O)N(CC(=O)N(CC(N)=O)Cc1ccccc1)Cc1ccccc1)Cc1ccccc1)Cc1ccccc1)Cc1ccccc1)Cc1ccccc1)Cc1ccccc1)C(=O)CNCCCCN [1 achiral-Nspe2, H-NLys-Nspe-Npm-(NLys-Npm-Npm)3-NH2] (H-[Nlys][Nspe][Nphe][Nlys][Nphe][Nphe][Nlys][Nphe][Nphe][Nlys][Nphe][Nphe]-NH2) | 13 | 60.8 | 11 | 22 | 16 | 36 | 160 |  | 
3 | NCCCCNCC(=O)N(CC(=O)N(CC(=O)N(CCCCN)CC(=O)N(CC(=O)N(CC(=O)N(CCCCN)CC(=O)N(CC(=O)N(CC(=O)N(CCCCN)CC(=O)N(CC(=O)N(CC(N)=O)Cc1ccccc1)Cc1ccccc1)Cc1ccccc1)Cc1ccccc1)Cc1ccccc1)Cc1ccccc1)Cc1ccccc1)Cc1ccccc1 [1 achiral, H-(NLys-Npm-Npm)4-NH2] (H-[Nlys][Nphe][Nphe][Nlys][Nphe][Nphe][Nlys][Nphe][Nphe][Nlys][Nphe][Nphe]-NH2) | 13 | 59.8 | 11 | 30 | 16 | 39 | 183 | ~3 | 
4 | C[C@@H](c1ccccc1)N(CC(=O)N(CCCCN)CC(=O)N(CC(=O)N(CC(=O)N(CCCCN)CC(=O)N(CC(=O)N(CC(=O)N(CCCCN)CC(=O)N(CC(=O)N(CC(=O)N(CCCCN)CC(N)=O)[C@@H](C)c1ccccc1)[C@@H](C)c1ccccc1)[C@@H](C)c1ccccc1)[C@@H](C)c1ccccc1)[C@@H](C)c1ccccc1)[C@@H](C)c1ccccc1)C(=O)CN(C(=O)CNCCCCN)[C@@H](C)c1ccccc1 [1 13mer, H-(NLys-Nspe-Nspe)4-NLys-NH2] (H-[Nlys][Nspe][Nspe][Nlys][Nspe][Nspe][Nlys][Nspe][Nspe][Nlys][Nspe][Nspe][Nlys]-NH2) | 8 | 62.8 | 8 | 10 | 9 | 14 | 21 |  | 
5 | CC(=O)O[C@@]12CO[C@@H]1C[C@H](O)[C@@]1(C)C(=O)[C@H](O)C3=C(C)[C@@H](OC(=O)[C@H](O)[C@@H](NC(=O)OC(C)(C)C)c4ccccc4)C[C@@](O)([C@@H](OC(=O)c4ccccc4)[C@H]21)C3(C)C [Docetaxel] |  |  |  |  |  |  |  |  | resistant
6 | C[C@@H](c1ccccc1)N(CC(N)=O)C(=O)CN(C(=O)CN(CCCCN)C(=O)CN(Cc1ccccc1)C(=O)CN(Cc1ccccc1)C(=O)CN(CCCCN)C(=O)CN(C(=O)CN(C(=O)CN(CCCCN)C(=O)CN(Cc1ccccc1)C(=O)CN(Cc1ccccc1)C(=O)CNCCCCN)[C@@H](C)c1ccccc1)[C@@H](C)c1ccccc1)[C@@H](C)c1ccccc1 [1-Npm2,3,8,9, H-(NLys-Npm-Npm-NLys-Nspe-Nspe)2-NH2] | 9 | 63.3 | 10 | 18 | 11 | 21 | 80 |  | 
7 | C[C@@H](c1ccccc1)N(CC(N)=O)C(=O)CN(CCCCN)C(=O)CN(C(=O)CN(C(=O)CN(CCCCN)C(=O)CN(C(=O)CN(C(=O)CN(CCCCN)C(=O)CN(C(=O)CN(C(=O)CNCCCCN)[C@@H](C)c1ccccc1)[C@@H](C)c1ccccc1)[C@@H](C)c1ccccc1)[C@@H](C)c1ccccc1)[C@@H](C)c1ccccc1)[C@@H](C)c1ccccc1 [1 11mer, H-(NLys-Nspe-Nspe)3-NLys-Nspe-NH2] (H-[Nlys][Nspe][Nspe][Nlys][Nspe][Nspe][Nlys][Nspe][Nspe][Nlys][Nspe]-NH2) | 11 | 63.5 | 10 | 24 | 10 | 19 | 103 |  | 
